From patent US20050113319A1, “11-Deoxy-6,9-ether erythromycin compounds” (priority 2003, published 2005) come the findings set out here.

≈ marks a conversion by molar mass, not a printed value. Where two headings read alike, the source gives them in different places.

Test [1] has as its target T1, motilin receptor (Homo sapiens, UniProt O43193). As to the kind of experiment: Motilin agonist activity (activation of the motilin receptor). The class given is cell-based. The protocol:
Compounds of this invention were tested for motilin agonist activity, following the procedure of Carreras et al., Anal. Biochem., 300, 146-151 (2002), the disclosure of which is incorporated herein by reference.

Test [2] relates to Streptococcus pneumoniae ATCC 6301. As to the kind of experiment: In vitro antibacterial activity. The class given is cell-based. To be noted: ATCC6301. The protocol: Compounds of this invention were tested for in vitro activity against Streptococcus pneumoniae ATCC 6301, an erythromycin-sensitive strain, using methods known in the microbiological art.
Test [3] has as its target T1, motilin receptor. Kind of test: Motilin receptor desensitization, cell-based assay. To be noted: for Activity retained following exposure, 1 μM Compound: motilin receptor activity retained after exposure to 1 μM test compound; for Activity retained following exposure, 10 μM Compound: motilin receptor activity retained after exposure to 10 μM test compound. The protocol:
Compounds were tested for motilin receptor desensitization using the cell-based assay described in Carreras et al., U.S. 2002/0192709 A1 (2002), “Methods for Evaluating Therapeutic Efficacy,” incorporated herein by reference. Briefly, the test measures the extent of motilin receptor activity retained after exposure to varying amounts (1 and 10 μM) of test compound.

For orientation: EC50 means the concentration needed to bring the measured effect to its halfway point. Read a high EC50 as a less potent agent. By MIC is commonly meant the lowest concentration that inhibits growth of the organism.

T1 sequence (O43193 whole entry): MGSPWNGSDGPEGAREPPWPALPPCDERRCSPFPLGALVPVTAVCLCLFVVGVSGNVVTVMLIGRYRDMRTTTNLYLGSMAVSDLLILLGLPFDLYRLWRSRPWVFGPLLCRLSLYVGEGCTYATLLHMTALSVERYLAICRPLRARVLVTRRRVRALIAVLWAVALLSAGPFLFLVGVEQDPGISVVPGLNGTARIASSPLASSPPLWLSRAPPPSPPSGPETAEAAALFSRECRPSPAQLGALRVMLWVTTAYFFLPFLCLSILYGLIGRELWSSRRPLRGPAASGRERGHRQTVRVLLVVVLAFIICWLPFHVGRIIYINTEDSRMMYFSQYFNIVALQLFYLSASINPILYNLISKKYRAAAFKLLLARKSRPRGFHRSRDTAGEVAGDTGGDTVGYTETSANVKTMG

As to `CC[C@H]1OC(=O)[C@H](C)[C@@H](O[C@H]2C[C@@](C)(OC)C[C@H](C)O2)[C@H](C)[C@@H](O[C@@H]2O[C@H](C)C[C@H](N(C)C)[C@H]2O)[C@@]2(C)C[C@@H](C)[C@H](O2)[C@H](C)C[C@H]1C` [Compound IVa], at motilin receptor [1], the EC50 turned out to be 42 nM. The same compound displayed an MIC in test [2] (Streptococcus pneumoniae) of 25 µg/mL (≈ 37.3 µM). On motilin receptor [3], the “Activity retained following exposure, 1 μM Compound” value was 24 % of original and the “Activity retained following exposure, 10 μM Compound” value was 7 % of original.
For `CC[C@H]1OC(=O)[C@H](C)[C@@H](O[C@H]2C[C@@](C)(OC)[C@@H](O)[C@H](C)O2)[C@H](C)[C@@H](O[C@@H]2O[C@H](C)C[C@H](N(C)C)[C@H]2O)[C@@]2(C)C[C@@H](C)[C@H](O2)[C@H](C)C[C@H]1C` [Compound IVb] the same measures were 230 nM, 100 µg/mL (≈ 146 µM), 57 % of original and 49 % of original.
For `CC[C@H]1OC(=O)[C@H](C)[C@@H](O[C@H]2C[C@@](C)(OC)C[C@H](C)O2)[C@H](C)[C@@H](O[C@@H]2O[C@H](C)C[C@H](N(C)C(C)C)[C@H]2O)[C@@]2(C)C[C@@H](C)[C@H](O2)[C@H](C)C[C@H]1C` [Compound IVc] the same measures were 13 nM, 50 µg/mL (≈ 71.6 µM), 9 % of original and 5 % of original.
`CC[C@H]1OC(=O)[C@H](C)[C@@H](O[C@H]2C[C@@](C)(OC)C[C@H](C)O2)[C@H](C)[C@@H](O[C@@H]2O[C@H](C)C[C@H](N(C)CCF)[C@H]2O)[C@@]2(C)C[C@@H](C)[C@H](O2)[C@H](C)C[C@H]1C` [Compound IVd] registered an EC50 on motilin receptor [1] of 45 nM. Moreover, the MIC in test [2] (Streptococcus pneumoniae ATCC 6301, erythromycin-sensitive strain, read-out: MIC) was > 100 µg/mL. For the same compound, at motilin receptor [3], the “Activity retained following exposure, 1 μM Compound” value was 7 % of original and the “Activity retained following exposure, 10 μM Compound” value is listed as 5 % of original.
